The text below walks through data of paper PMC5519928, “Log D versus HPLC derived hydrophobicity: The development of predictive tools to aid in the rational design of bioactive peptoids” (Biopolymers, 2017).

Structures are written as SMILES. Converted amounts (≈) assume the structure as drawn. Non-standard residues stand in square brackets, D forms with d. Residues, ends and D or L forms follow the SMILES beside them. Nspe = C[C@H](NCC(=O)O)c1ccccc1; Nlys = NCCCCNCC(=O)O

Data set [1] is described as follows: Average hydrophobicity by analytical reverse-phase HPLC retention. Type of data set: physicochemical. The procedure: To examine the average hydrophobicity of the peptoids, the retention time for from reverse‐phase HPLC was determined on a C18 column using acetonitrile and water, with 0.1% TFA (see Figure 3A). To find log D values, partitioning experiments were carried out, as illustrated by Figure 2. A peptoid solution (between 10 and 100 µM) in PBS was added to an equal volume of octanol and the system allowed to equilibrate under gentle agitation for ∼150 h (as 48 h was not found to be sufficient for the system to reach equilibrium). At this point it is assumed that the peptoid has partitioned between these two phases, such as to minimise its free energy.
Preparative RP‐HPLC was performed with a semi‐preparative Perkin Elmer Series 200 lc pump fitted with a 785A UV/Vis detector using a SB‐Analytical ODH‐S optimal column (250 mm × 10 mm, 5 µm); flow rate 2 mL min^−1; λ = 250 nm, typical linear gradient elution 0–50% of solvent B over 60 min (A = 0.1% TFA in 95% H2O and 5% MeCN, B = 0.1% TFA in 5% H2O and 95% MeCN). Analytical RP‐HPLC was performed with a Perkin Elmer Series 200 LC pump fitted with a Series 200 UV/Vis detector using a SB‐Analytical ODH‐S optimal column (100 mm × 1.6 mm, 3.5 µm); flow rate 1 mL min^−1; λ = 220 nm, linear gradient elution 0–100% of solvent B over 30 min (A = 0.05% TFA, 95% H2O, 5% MeCN, B = 0.03% TFA, 5% H2O, 95% MeCN).
Preparative RP-HPLC was performed with a semi-preparative Perkin Elmer Series 200 lc pump fitted with a 785A UV/Vis detector using a SB-Analytical ODH-S optimal column (250 × 10 mm, 5 µm); flow rate 2 ml min^−1; λ = 250 nm, typical linear gradient elution 0-50% of solvent B over 60 min (A = 0.1% TFA in 95% H2O and 5% MeCN, B = 0.1% TFA in 5% H2O and 95% MeCN). Analytical RP-HPLC was performed with a Perkin Elmer Series 200 LC pump fitted with a Series 200 UV/Vis detector using a SB-Analytical ODH-S optimal column (100 × 1.6 mm, 3.5 µm); flow rate 1 ml min^−1; λ = 220 nm, linear gradient elution 0-100% of solvent B over 30 min (A = 0.05% TFA, 95% H2O, 5% MeCN, B = 0.03% TFA, 5% H2O, 95% MeCN).
Table S3. Data from analytical RP-HPLC for representative compounds of this peptoid library. Analytical HPLC gradient: 0 – 100% solvent B over 30 min at 220 nm (where solvent A = 95% H2O, 5% MeCN, 0.05 % TFA; solvent B = 95% MeCN, 5% H2O, 0.03% TFA).

Data set [2] has as its system L. mexicana promastigotes. The data set is described as follows: Cytotoxicity assay with Leishmania mexicana M379 promastigotes (alamarBlue). Type of data set: cell-based. The following applies: 1 h pre-incubation with compound, then 24 h incubation, alamarBlue 4 h, fluorescence Ex 560/Em 600 nm, triplicate, minimum of two separate occasions, ED50 = median effective dose. The procedure:
Leishmania mexicana (M379) promastigote parasites were maintained at 26 °C in Schneider's Insect medium (Sigma-Aldrich) supplemented with heat-inactivated foetal bovine sera (FBS, 15%; Biosera Ltd). Cells were counted using a Neubauer Improved Haemocytometer. Promastigotes were transformed into axenic amastigotes by a pH and temperature shift as previously described.5 A culture of recently transformed (three days) promastigotes in the late log phase was transferred into Schneider's Insect medium supplemented with 20% heat-inactivated FBS (pH 5.5) at 5 x 10^5 parasites/mL. […] After additional 5–7 days, the parasites should be in the amastigote stage and be ready for cytotoxicity studies and infections.
Cytotoxicity analyses were performed in 96-well plates (Costar, Fisher Scientific) using alamarBlue (Invitrogen) for cell viability detection as previously described.6 Promastigote and amastigote L. mexicana were pre-incubated with the compounds in triplicate (5 mM stock solutions in DMSO; Amphotericin B was used as a positive control; untreated parasites with DMSO as a negative control) in 50 µL of the corresponding media at 4 x 106 mL-1 for 1 hour. […] Then, 10 µL alamarBlue solution (Invitrogen) was added to each well for an incubation of 4 hours prior to assessing cell viability using a fluorescent plate reader (Biotek; Ex 560 nm / Em 600 nm). […]

The next data set deals with S. aureus. Type of data set: cell-based. The following applies: Iso-sensitest broth, 96-well, 2-100 µM 1:2 serial dilutions, 38 °C 16 h with shaking, absorbance; lowest concentration completely inhibiting growth; triplicate, minimum of two occasions. The procedure: (§1) Bacterial cultures were prepared by streaking the bacterial strain from a 4°C- or frozen stock culture to single colonies onto agar plates (containing the appropriate antibiotic for strains carrying antibiotic resistance plasmids) with an inoculation loop, followed by overnight incubation at 37 °C.
(§2) Primary overnight (o/n) cultures were prepared by inoculating a single colony from a streak plate into 5 mL of LB broth in a screw-capped culture tube, that was placed on a tube rotator at 37 °C (or 30 °C for sensitive strains) for overnight incubation. Before the usage of stock cultures the strains genotype were checked. Primary stocks were stored at 4°C for up to 6 weeks and always replaced from fresh colonies.
(§3) Fresh cultures used for experiments contained 0.1-0.5 mL o/n culture diluted into 8 mL of fresh medium in a standard test tube. Placed in a shaking water bath or on a tube rotator the bacteria were grown at the required temperature to the required cell density. Frozen stock cultures used for long term storage that can remain viable for 10 years were prepared by mixing 2.5 mL fresh o/n culture with 1.5 mL sterile 80% glycerol in a 5 mL sterile blood tube and stored at -20 °C.
(§4) MIC values were attained according to the previously described protocol4 and were conducted in 96-well plates (Costar, Fisher Scientific). Using the pre-prepared cultures, an innoculum density of 0.07 at 650 nm was set by comparing the absorbance with 0.5 MacFarland standard (240 μM BaCl2 in 0.18 M H2SO4). The innoculum was then diluted down ten-fold with Iso-sensitest broth (Oxoid, ThermoScientific) before use. Peptoids were initially dissolved in DMSO (5 mM) and then diluted further with Iso-sensitest broth to achieve a concentration range of 4 – 200 µM using 1 : 2 serial dilutions. 50 μl of innoculum and 50 μL of peptoid solution were added to each test well (final concentration range of 2 – 100 µM). Positive control containing only innoculum and Iso-sensitest broth; negative control containing inoculum and serial dilutions of ampicillin (from 250 microgram/mL to 2 microgram per mL); DMSO control containing innoculum and serial dilutions of DMSO; and Iso-sensitest broth were used as a sterile control. […] Quantitative data was attained from absorbance values using a microplate reader.

A further data set relates to E. coli. Type of data set: cell-based. The conditions noted are these: Iso-sensitest broth, 96-well, 2-100 µM 1:2 serial dilutions, 38 °C 16 h with shaking, absorbance; lowest concentration completely inhibiting growth; triplicate, minimum of two occasions. The procedure:
as §1, §2, §3, §4

For the molecule `C[C@@H](c1ccccc1)N(CC(N)=O)C(=O)CN(C(=O)CN(CCCCN)C(=O)CN(C(=O)CN(C(=O)CN(CCCCN)C(=O)CN(C(=O)CN(C(=O)CN(CCCCN)C(=O)CN(C(=O)CN(C(=O)CNCCCCN)[C@@H](C)c1ccccc1)[C@@H](C)c1ccccc1)[C@@H](C)c1ccccc1)[C@@H](C)c1ccccc1)[C@@H](C)c1ccccc1)[C@@H](C)c1ccccc1)[C@@H](C)c1ccccc1` [Peptoid 4] (H-[Nlys][Nspe][Nspe][Nlys][Nspe][Nspe][Nlys][Nspe][Nspe][Nlys][Nspe][Nspe]-NH2), the “RP-HPLC Retention (% MeCN)” value in data set [1] (Supplement table 4 (chemical and physical data for peptoid library), % MeCN at elution in RP-HPLC) was 42 % MeCN. In addition, the “HPLC RT” value in data set [1] (Table 2 / main text, chromatographic, RP-HPLC C18 retention time as measure of average hydrophobicity, gradient 0-100% solvent B over 30 min, 220 nm, 1 mL/min, A = 0.05% TFA, 95% H2O, 5% MeCN, B = 0.03% TFA, 5% H2O, 95% MeCN, around pH 2.2) is 14.9 min. Also, the “ED50 L. mex prom.” value in data set [2] is listed as 8 µM. The “MIC S. aureus” value in the data set with S. aureus stood at 2 µM (≈ 3.64 µg/mL). Moreover, in the data set on E. coli, the “MIC E. coli” value stood at 25 µM (≈ 45.5 µg/mL).
